# Where two headings read alike, the source gives them in different places.
# What was measured:
# recombinant human GALK1 = recombinant human GALK1 (Homo sapiens, UniProt P51570); test: hGALK1 biochemical activity assay (Kinase-Glo Plus, ATP depletion)
# Procedure, shortened: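 Turnover is measured as ATP depletion by Kinase-Glo Plus luminescence after a 1 h room-temperature reaction. Compounds span 11 concentrations, 57.4 μM–0.97 nM, in final 20 mM HEPES pH 8.0 with 5 mM MgCl2. The substrate solution held 35 μM ATP; the added solution held 5 nM human or mouse GALK1 and 100 μM galactose.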
# [1] = human liver microsome stability (HLM); assay type: in vitro ADME; conditions: GALK lead profile
# recombinant mouse GALK1 = recombinant mouse GALK1 (Mus musculus, UniProt Q9R0N0); test: mGALK1 biochemical activity assay (Kinase-Glo Plus, ATP depletion)
# Sequence of recombinant mouse GALK1 (Q9R0N0 whole entry): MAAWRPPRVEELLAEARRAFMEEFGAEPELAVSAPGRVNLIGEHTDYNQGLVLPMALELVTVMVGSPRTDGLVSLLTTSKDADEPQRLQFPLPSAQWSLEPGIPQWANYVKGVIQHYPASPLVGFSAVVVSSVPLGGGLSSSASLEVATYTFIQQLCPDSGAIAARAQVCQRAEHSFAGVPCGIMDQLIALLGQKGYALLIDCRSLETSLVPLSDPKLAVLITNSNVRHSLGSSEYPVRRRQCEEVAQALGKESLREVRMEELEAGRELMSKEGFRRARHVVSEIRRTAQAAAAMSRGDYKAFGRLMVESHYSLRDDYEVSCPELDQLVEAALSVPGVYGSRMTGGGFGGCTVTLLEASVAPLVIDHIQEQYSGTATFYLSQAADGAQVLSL
# Procedure, shortened: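 Recombinant GALK1 (5 nM) with 100 μM galactose; GALK1 turnover read as ATP depletion by Kinase-Glo Plus luminescence. Reaction ran 1 h at room temperature before detection reagent was added.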
# [2] = rat microsomal stability (RLM)
# [3] = tested on: skin fibroblasts derived from GALT-deficient patients; test: Gal-1-p accumulation assay in patient fibroblasts; assay type: cell-based, human
# Procedure: Skin fibroblasts derived from GALT-deficient patients were maintained in galactose-free culture medium supplemented with 10% hexose-free fetal bovine serum (FBS). Before galactose challenge, inhibitors were added to the medium at designated concentrations and incubated at 37° C. for 4 hr. Then, galactose was added to reach 0.05% in the medium. After 4 hr of challenge, cells were collected and washed twice with PBS. Then, the cells were disrupted in 300 μL of ice-cold hypotonic buffer containing 25 mM Tris-HCl (pH 7.4), 25 mM NaCl, 0.5 mM EDTA, and protease inhibitor cocktail (Roche). The lysates were passed five times through a 30-gauge needle and centrifuged for 20 min at 16,000×g and 4° C. A small portion of supernatant was saved for protein concentration measurement. Gal-1-p level was measured using the alkaline phosphatase coupled method previously described. The gal-1-p concentration was normalized to protein concentration. The assay was analyzed using the paired t-test to determine the statistical difference between the compound treated cells and corresponding DMSO control. The two-sided p value less than 0.05 was considered statistically significant.
# For measurement of cellular Gal-1P reduction, compounds at different concentrations were added to cultured patient fibroblast at 80% confluency. After incubating the compounds for 16 hours, 10 mM galactose was added to the culture. After another 4-hours, cells were washed with cold PBS buffer 3× and harvested for gal-1P measurement, according to previously published method. Liu et al., Bioorg. Med. Chem. Lett. 25(3): 721-727 (2015).
# The in vitro hGALK1 activity assay was performed as previously described. Liu et al., Bioorg. Med. Chem. Lett. 25(3): 721-727 (2015). For the measurement of cellular Gal-1P reduction, compounds at different concentrations were added to cultured patient fibroblast at 80% confluency. After incubating the compounds for 16 hours, 10 mM galactose was added to the culture. […]
# [4] = aqueous kinetic solubility
# [5] = mouse liver microsome stability (MLM); assay type: in vitro ADME; conditions: GALK lead profile
# hGALK1m [6] = molecular target: T1, hGALK1m (Homo sapiens, UniProt P51570, E253A/K252A); test: in vitro hGALK1 activity assay of the structure-based optimisation (Example 12, Tables 17-20); assay type: biochemical; conditions: for Emax: Tables 18-19, read-out: Max Response (%)
# T1 construct: made in house; host or cells: E. coli HMS174
# T1 sequence (P51570 whole entry K252A/E253A): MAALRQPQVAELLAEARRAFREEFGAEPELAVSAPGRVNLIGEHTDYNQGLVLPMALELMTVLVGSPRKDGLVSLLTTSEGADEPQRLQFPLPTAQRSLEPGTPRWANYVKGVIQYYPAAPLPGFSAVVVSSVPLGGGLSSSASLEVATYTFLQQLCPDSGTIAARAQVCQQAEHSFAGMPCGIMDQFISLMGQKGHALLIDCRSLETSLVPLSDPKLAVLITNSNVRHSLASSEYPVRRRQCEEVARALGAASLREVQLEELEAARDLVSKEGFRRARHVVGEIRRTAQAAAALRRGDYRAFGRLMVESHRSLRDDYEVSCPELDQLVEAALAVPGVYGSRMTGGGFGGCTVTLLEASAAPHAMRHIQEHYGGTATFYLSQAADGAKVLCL
# hGALK1m [7] = molecular target: T1, hGALK1m; test: surface plasma resonance (SPR) binding; conditions: SPR at 4° C.
# Procedure: Further characterization of the two lead compounds thus far, Compound 1 and Compound 3, with surface plasma resonance (SPR), confirmed that these compounds bind to hGALK1m tightly. Their KDs were 23 nM and 12 nM respectively at 4° C. (FIGS. 4A and 3B). We attempted to co-crystalize these two compounds with hGALK1m, but only succeeded with Compound 1. […] Even with a fluorine substitution at C6 position, the benzoxazole ring of Compound 1 absolutely overlapped with that of Compound A (FIG. 4D). […] The decahydroquinazoline ring was opened in Compound 1, but the hydrogen bond between ketone group and Arg 105 remained intact, and Arg 105 moved closer to the ketone group in the crystal structure with Compound 1 (FIG. 4E). In addition, the amide's nitrogen atom formed a hydrogen bond with Tyr 109 (FIG. 4E), which could clarify why substituting the closed ring with opened amide structure improves the compound's activity. The isonicotinic acid moiety extended outside of the enzyme's active center and was solvent exposed (FIG. 4C).
# [8] = rat
# in vitro [9] = conditions: PAMPA, ADME P: PAMPA permeability (class)
# in vitro [10] = conditions: rat, microsomes
# [11] = PAMPA
# [12] = Tables 2-15, 35 μM ATP, 100 μM galactose, 1 h, bracketed figure after some values (e.g. −1.2) is undefined and not reported, read-out: hGALK IC50
# [13] = recombinant human GALK1, Kinase-Glo Plus ATP depletion, read-out: hGALK
# [14] = recombinant mouse GALK1, Kinase-Glo Plus ATP depletion, read-out: mGALK
# [15] = Tables 18-20 and text of Example 12
# [16] = Tables 2-15, 35 μM ATP, 100 μM galactose, 1 h, bracketed figure after some values is undefined and not reported, read-out: mGALK IC50
# Sequence of recombinant human GALK1 (P51570 whole entry): as the sequence (P51570 whole entry K252A/E253A) above, with A252K, A253E counted along it
smiles,measurement,setting,value
"CC1=C(C(=O)NCc2cnn(C)c2)C(c2ccc(C)cc2Cl)N=C(Nc2nc3ccc(F)c(N)c3o2)N1 (stereo not shown) [Compound 126, 2-((7-amino-6-fluorobenzo[d]oxazol-2-yl)amino)-4-(2-chloro-4-methylphenyl)-6-methyl-N-((1-methyl-1H-pyrazol-4-yl)methyl)-1,4-dihydropyrimidine-5-carboxamide]",IC50,recombinant human GALK1; [12],50 nM
same,IC50,recombinant human GALK1; [13],50 nM
same,HLM t,[1],47 min
same,IC50,recombinant mouse GALK1; [14],690 nM
same,RLM t,[2]; GALK lead profile,16 min
same,Metab. Stabil. (m),[2]; microsomal stability half-life,17.1 m
same,effect on Gal-1P accumulation (FIG. 5A),[3]; CG patient fibroblasts,inhibited Gal-1P accumulation
same,change of Gal-1P inhibition with concentration (FIG. 5B),[3]; concentration increased from 0.5 μM to 1 μM,significantly greater inhibition of Gal-1P accumulation
same,change of Gal-1P inhibition with concentration (FIG. 5B),[3]; concentration increased from 1 μM to 3 μM,did not increase significantly
same,Sol.,[4]; aqueous kinetic solubility,1.27 µg/mL
same,MLM t,[5],13 min
same,PAMPA,"PAMPA permeability; GALK lead profile, two values given",485 10^−6 cm/s
same,Perm. (1 × 10^−6 cm/sec),PAMPA permeability; PAMPA,459.1 1 × 10^−6 cm/sec
same,Papp,"PAMPA permeability; PAMPA, GALK lead profile, two values given",390 ×10⁻⁶ cm/s
same,IC50,hGALK1m [6]; [15],14 nM
"CC1=C(C(=O)Nc2cc(C(=O)O)ccn2)C(c2ccccc2Cl)N=C(Nc2nc3cccc(N)c3o2)N1 (racemic) [Compound 3, 2(2-((7-aminobenzo[d]oxazol-2-yl)amino)-4-(2-chlorophenyl)-6-methyl-1,4-dihydropyrimidine-5-carboxamido)isonicotinic acid]",IC50,recombinant human GALK1; [12],220 nM
same,IC50,recombinant human GALK1; [13],220 nM
same,IC50,recombinant mouse GALK1; [16],3430 nM
same,IC50,recombinant mouse GALK1; [14],3430 nM
same,Metab. Stabil. (m),[2]; microsomal half-life,>30 m
same,half-life,"[2]; rat, rat liver microsomes",< 10 min
same,Sol.,[4],>76 µg/mL
same,Papp,"PAMPA permeability; PAMPA, ADME P: PAMPA permeability (class), Tables 17-19, class probably colour-coded, colour lost",< 10 ×10⁻⁶ cm/s
same,Papp,"PAMPA permeability; PAMPA, Perm. (1 × 10^−6 cm/sec)",< 1 ×10⁻⁶ cm/s
same,Kd,hGALK1m [7],12 nM
same,Emax,hGALK1m [6],100%
same,IC50,hGALK1m [6]; [15],77 nM
same,fold improvement of potency (IC50) versus parent compound,hGALK1m [6]; increase in potency relative to the unsubstituted parent,13 fold
"CC1=C(C(=O)Nc2cc(C(=O)O)ccn2)C(c2ccccc2Cl)N=C(Nc2nc3cc(Cl)ccc3o2)N1 (stereo not shown) [Compound 9, 2-(2-((5-chlorobenzo[d]oxazol-2-yl)amino)-4-(2-chlorophenyl)-6-methyl-1,4-dihydropyrimidine-5-carboxamido)isonicotinic acid]",IC50,recombinant human GALK1; [13],2430 nM
same,Metab. Stabil. (m),[8],>30 m
same,IC50,recombinant mouse GALK1; [16],6110 nM
same,IC50,recombinant mouse GALK1; [14],6110 nM
same,Papp,in vitro [9],< 10 ×10⁻⁶ cm/s
same,half-life,in vitro [10],< 10 min
same,Perm. (1 × 10^−6 cm/sec),[11],<1 1 × 10^−6 cm/sec
same,Emax,hGALK1m [6],100%
same,IC50,hGALK1m [6]; Tables 18-19 and text of Example 12,1700 nM

# Reference: patent US20230158025A1 (UNIVERSITY OF UTAH RESEARCH FOUNDATION, priority 2020, published 2023)
